Columns and labels:
Experiment in all cases: Brain gene expression (TLDA qPCR)
Type in all cases: in vivo, rat
Conditions in all cases: 15 wk diet; control diet = 1
retnoid X receptor α = test system: retnoid X receptor α
Method: (§1) RNA was extracted from the flash-frozen half brains of the 15 week postweaning rats. The brain was briefly thawed and dissected to isolate the brainstem, cerebellum, cortex, hippocampus, striatum, and the rest of the brain. RNA was extracted from the brain regions using Trizol reagent (Ambion; Life Technologies, Burlington, ON, Canada) according to the manufacturer's protocol. […] Chloroform was added to the Trizol reagent at a ratio of 1:5 (chloroform:Trizol reagent) and the solution was mixed and incubated at room temperature. The solution was then centrifuged at 12,000 g for 15 min at 4°C. […] The samples were then centrifuged at 12,000 g for 10 min at 4°C to precipitate the RNA pellet. […] The pellet was allowed to air dry, and was then dissolved in RNase-free water. A Nanodrop 1000 (NanoDrop Technologies Inc., Wilmington, DE) was used to determine the concentration and purity of each sample by measuring absorbance at 260 and 280 nm. Each sample was aliquoted to make 1 μg of RNA per 10 μl of sample and stored at -80°C. A high-capacity cDNA reverse transcription kit (Applied Biosystems, Burlington, ON, Canada) was used to reverse transcribe 1 μg of RNA according to the manufacturer's instructions. Newly synthesized cDNA was stored at -20°C until the following day when it was loaded onto TaqMan low density array (TLDA) plates. Quantitative real-time PCR was performed using TLDA (Applied Biosystems) on the 7900HT real-time PCR system (Applied Biosystems). cDNA (50 ng) was diluted with water to make a volume of 50 μl and mixed with 50 μl of TaqMan Universal PCR Master Mix (Applied Biosystems). The mixture was then loaded onto a customized preconfigured 384-well TLDA plate according to the manufacturer's protocol. TaqMan gene expression assays were used to assess 21 genes that were previously reported to be differentially expressed with n-3 deprivation. […] All genes were normalized to phosphoglycerate kinase 1. Similar results were found when normalizing to β-actin or 18S rRNA.

retinoic acid receptor α = test system: retinoic acid receptor α
Method: as §1

[1] = test system: vesicular monoamine transporter 2
Method: as §1

group 6 iPLA2 = test system: group 6 iPLA2
Method: as §1

heme oxygenase 1 = test system: heme oxygenase 1
Method: as §1

α-synuclein = test system: α-synuclein
Method: as §1

group 4 cPLA2 = test system: group 4 cPLA2
Method: as §1

tyrosine hydroxylase = test system: tyrosine hydroxylase
Method: as §1

[2] = test system: epidermal growth factor receptor
Method: as §1

uncoupling protein 2 = test system: uncoupling protein 2
Method: as §1

TNF-α receptor member 1a = test system: TNF-α receptor member 1a
Method: as §1

group 2a sPLA2 = test system: group 2a sPLA2
Method: as §1

β-actin = test system: β-actin
Method: as §1

15-lipoxygenase = test system: 15-lipoxygenase
Method: as §1

dopamine receptor D2 = test system: dopamine receptor D2
Method: as §1

COX-2 = test system: COX-2
Method: as §1

retnoid X receptor β = test system: retnoid X receptor β
Method: as §1

## CC/C=C\C/C=C\C/C=C\CCCCCCCC(=O)O [ALA, α-linolenic acid]
Retnoid X receptor α
  Brainstem gene expression: RXRa: 0.99 RQ
  Cerebellum gene expression: RXRa: 1.15 RQ
  Cortex gene expression: RXR a: 1.02 RQ
  Hippocampus gene expression: RXR a: 1.08 RQ
  Rest of brain gene expression: RXR a: 1.05 RQ
  Striatum gene expression: RXRa: 1.14 RQ
Retinoic acid receptor α
  Brainstem gene expression: RARa: 1.00 RQ
  Cerebellum gene expression: RARa: 1.07 RQ
  Cortex gene expression: RAR a: 1.03 RQ
  Hippocampus gene expression: RAR a: 0.96 RQ
  Rest of brain gene expression: RAR a: 0.91 RQ
  Striatum gene expression: RARa: 0.93 RQ
[1]
  Brainstem gene expression: VMAT2: 1.34 RQ
  Hippocampus gene expression: VMAT 2: 0.84 RQ
  Rest of brain gene expression: VMAT2: 1.12 RQ
Group 6 iPLA2
  Brainstem gene expression: iPLA2: 0.89 RQ
  Cerebellum gene expression: iPLA2: 1.02 RQ
  Cortex gene expression: iPLA2: 0.92 RQ
  Hippocampus gene expression: iPLA2: 1.02 RQ
  Rest of brain gene expression: iPLA2: 0.95 RQ
  Striatum gene expression: iPLA2: 0.96 RQ
Heme oxygenase 1
  Brainstem gene expression: HO1: 1.01 RQ
  Cerebellum gene expression: HO1: 1.21 RQ
  Cortex gene expression: HO1: 1.05 RQ
  Hippocampus gene expression: HO1: 1.01 RQ
  Rest of brain gene expression: HO1: 1.00 RQ
  Striatum gene expression: HO1: 1.09 RQ
α-synuclein
  Brainstem gene expression: SNCa: 0.95 RQ
  Cerebellum gene expression: SNCa: 0.96 RQ
  Cortex gene expression: SNCa: 1.08 RQ
  Hippocampus gene expression: SNCa: 1.10 RQ
  Rest of brain gene expression: SNCa: 0.97 RQ
  Striatum gene expression: SNCa: 1.05 RQ
Group 4 cPLA2
  Brainstem gene expression: cPLA2: 0.98 RQ
  Cerebellum gene expression: cPLA2: 1.17 RQ
  Cortex gene expression: cPLA2: 0.93 RQ
  Hippocampus gene expression: cPLA2: 1.10 RQ
  Rest of brain gene expression: cPLA2: 0.85 RQ
  Striatum gene expression: cPLA2: 1.04 RQ
Tyrosine hydroxylase
  Brainstem gene expression: TH: 1.24 RQ
  Cerebellum gene expression: TH: 1.60 RQ
  Cortex gene expression: TH: 1.56 RQ
  Hippocampus gene expression: TH: 1.15 RQ
  Rest of brain gene expression: TH: 1.09 RQ
  Striatum gene expression: TH: 1.12 RQ
[2]
  Brainstem gene expression: EGFR: 1.05 RQ
  Cerebellum gene expression: EGFR: 1.26 RQ
  Cortex gene expression: EGFR: 0.94 RQ
  Hippocampus gene expression: EGFR: 1.10 RQ
  Rest of brain gene expression: EGFR: 1.06 RQ
  Striatum gene expression: EGFR: 1.00 RQ
Uncoupling protein 2
  Brainstem gene expression: UCP2: 1.05 RQ
  Cerebellum gene expression: UCP2: 1.17 RQ
  Cortex gene expression: UCP2: 1.04 RQ
  Hippocampus gene expression: UCP2: 1.26 RQ
  Rest of brain gene expression: UCP2: 0.97 RQ
  Striatum gene expression: UCP2: 1.09 RQ
TNF-α receptor member 1a
  Brainstem gene expression: TNFaR1a: 1.30 RQ
  Cerebellum gene expression: TNFaR1a: 1.12 RQ
  Cortex gene expression: TNFaR1a: 1.11 RQ
  Hippocampus gene expression: TNFa R 1a: 1.14 RQ
  Rest of brain gene expression: TNFaR1a: 0.95 RQ
  Striatum gene expression: TNFaR1a: 0.98 RQ
Group 2a sPLA2
  Brainstem gene expression: sPLA2: 0.72 RQ
  Cerebellum gene expression: sPLA2: 0.86 RQ
  Cortex gene expression: spla2: 0.85 RQ
  Hippocampus gene expression: sPLA2: 1.08 RQ
  Rest of brain gene expression: sPLA2: 0.67 RQ
  Striatum gene expression: sPLA2: 0.46 RQ
β-actin
  Brainstem gene expression: b-actin: 1.11 RQ
  Cerebellum gene expression: b actin: 1.10 RQ
  Cortex gene expression: b actin: 1.05 RQ
  Hippocampus gene expression: B-actin: 1.13 RQ
  Rest of brain gene expression: b actin: 1.00 RQ
  Striatum gene expression: b actin: 1.04 RQ
15-lipoxygenase
  Brainstem gene expression: 15 LOX: 0.91 RQ
  Cerebellum gene expression: 15 LOX: 0.63 RQ
  Cortex gene expression: 15 LOX: 0.77 RQ
  Hippocampus gene expression: 15 LOX: 0.74 RQ
  Rest of brain gene expression: 15 LOX: 0.62 RQ
  Striatum gene expression: 15 LOX: 1.00 RQ
Dopamine receptor D2
  Brainstem gene expression: DR D2: 0.96 RQ
  Cerebellum gene expression: DR D2: 1.13 RQ
  Cortex gene expression: DR D2: 1.11 RQ
  Hippocampus gene expression: DR D2: 1.27 RQ
  Rest of brain gene expression: DR D2: 1.00 RQ
  Striatum gene expression: DR D2: 1.20 RQ
COX-2
  Brainstem gene expression: COX 2: 0.87 RQ
  Cerebellum gene expression: COX 2: 1.46 RQ
  Cortex gene expression: COX 2: 1.17 RQ
  Hippocampus gene expression: COX 2: 1.15 RQ
  Rest of brain gene expression: COX 2: 0.92 RQ
  Striatum gene expression: COX 2: 1.04 RQ
Retnoid X receptor β
  Brainstem gene expression: RXRb: 1.15 RQ
  Cerebellum gene expression: RXRb: 1.04 RQ
  Cortex gene expression: RXR b: 1.02 RQ
  Hippocampus gene expression: RXR b: 0.97 RQ
  Rest of brain gene expression: RXR b: 0.91 RQ
  Striatum gene expression: RXRb: 1.10 RQ

Reference: article PMC3927474, “Whole body synthesis rates of DHA from α-linolenic acid are greater than brain DHA accretion and uptake rates in adult rats” (Journal of Lipid Research, 2014)
